Our source for the Ki values is patent US20230203041A1, “ANTAGONISTS OF THE ADENOSINE A2A RECEPTOR” (AdoRx Therapeutics Limited, priority 2020, published 2023).

In assay [1] the target is T1, human Adenosine A2a receptor (Homo sapiens, UniProt P29274).
T1 construct: expressed in transfected cells; host or cells: CHO cell membranes
The assay can be described thus: Adenosine receptor TR-FRET binding assay (CA200645 displacement), A2a. The following applies: 100 nM CA200645, CHO cell membranes, 2 hours at room temperature. (TR-FRET usually uses a lanthanide donor and a delayed reading to cut background.)
Description: (§1) All FRET binding experiments were conducted at room temperature in white 384-well plates, in assay binding buffer containing 1×LabMed (Cisbio, France), 100 μg/mL saponin, 1% DMSO and 0.02% pluronic acid. Binding of the fluorescently labelled Adenosine receptor antagonist XAC (CA200645, FRET acceptor) to terbium-labelled A1, A2a, A2b and A3 adenosine receptors (FRET donors) was detected by time-resolved FRET due to the close proximity of the donor and acceptor in a binding event. To investigate the ability of unlabelled test compounds to bind to Adenosine A1, A2a, A2b and A3 receptors, dose response curves were constructed that determined the ability of a range of concentrations to inhibit the binding of 30 nM CA200645 to the A2b receptor and 100 nM CA200645 to the A1, A2a, and A3 receptor.
(§2) Serial dilution (1:3 dilutions) of test compounds in neat DMSO and transfer of a 400 nL sample of test compound into the assay plate was carried out using the Mosquito (TTP Labtech, UK). The compound samples were incubated for 2 hours at room temperature with a fixed concentration of CA200645 defined for each receptor (see above) and CHO cell membranes containing the human Adenosine A1 (0.5 μg/well), A2a (0.3 μg/well), A2b (1 μg/well) or A3 (1 μg/well) receptor in 40 μL of assay buffer. Total and non-specific binding of CA200645 was determined in the absence and presence of 10 μM XAC, respectively. Following 2 hours incubation, the level of CA200645 binding was detected on a Pherastar FSX (BMG Labtech, Germany) using standard TR-FRET settings. The terbium donor was excited with three laser flashes at a wavelength of 337 nm, and donor and acceptor emission was detected at 620 nm and 665 nm wavelengths, respectively. FRET ratios were obtained by multiplying the acceptor/donor ratio value by 10,000. Specific binding was determined by subtracting the non-specific binding FRET ratio from the total binding FRET ratio. Compound IC50 curves were analysed using GraphPad Prism 7.0 (GraphPad, USA) and Ki affinity values were determined from the obtained IC50 values using the method of Cheng and Prusoff.

Assay [2] has as its target T2, human Adenosine A2b receptor (Homo sapiens, UniProt P29275).
T2 construct: expressed in transfected cells; host or cells: CHO cell membranes
T2 sequence (P29275 1-332): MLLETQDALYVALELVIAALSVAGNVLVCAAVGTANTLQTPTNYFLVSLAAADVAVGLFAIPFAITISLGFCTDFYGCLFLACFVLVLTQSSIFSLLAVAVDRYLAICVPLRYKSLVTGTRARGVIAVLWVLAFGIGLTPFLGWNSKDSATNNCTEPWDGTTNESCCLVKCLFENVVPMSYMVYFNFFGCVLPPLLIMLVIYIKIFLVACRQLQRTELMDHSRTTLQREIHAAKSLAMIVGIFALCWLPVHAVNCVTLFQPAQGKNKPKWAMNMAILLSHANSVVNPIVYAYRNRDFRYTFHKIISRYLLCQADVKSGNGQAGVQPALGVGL
Description: Adenosine receptor TR-FRET binding assay (CA200645 displacement), A2b. The following applies: 30 nM CA200645, CHO cell membranes, 2 hours at room temperature.
Description: as §1, §2

The target in assay [3] is T3, human Adenosine A1 receptor (Homo sapiens, UniProt P30542).
T3 sequence (P30542 1-326): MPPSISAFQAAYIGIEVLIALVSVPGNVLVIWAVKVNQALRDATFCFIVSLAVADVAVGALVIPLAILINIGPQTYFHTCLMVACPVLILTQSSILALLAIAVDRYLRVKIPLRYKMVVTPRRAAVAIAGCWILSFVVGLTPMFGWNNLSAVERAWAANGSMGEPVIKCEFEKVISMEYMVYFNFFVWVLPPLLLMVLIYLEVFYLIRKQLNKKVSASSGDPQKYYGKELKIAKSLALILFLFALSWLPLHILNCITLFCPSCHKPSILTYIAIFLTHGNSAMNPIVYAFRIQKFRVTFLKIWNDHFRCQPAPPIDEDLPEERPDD
The assay can be described thus: Adenosine receptor TR-FRET binding assay (CA200645 displacement), A1.

For assay [4], the target named is T4, human Adenosine A3 receptor (Homo sapiens, UniProt P0DMS8).
T4 sequence (P0DMS8 1-318): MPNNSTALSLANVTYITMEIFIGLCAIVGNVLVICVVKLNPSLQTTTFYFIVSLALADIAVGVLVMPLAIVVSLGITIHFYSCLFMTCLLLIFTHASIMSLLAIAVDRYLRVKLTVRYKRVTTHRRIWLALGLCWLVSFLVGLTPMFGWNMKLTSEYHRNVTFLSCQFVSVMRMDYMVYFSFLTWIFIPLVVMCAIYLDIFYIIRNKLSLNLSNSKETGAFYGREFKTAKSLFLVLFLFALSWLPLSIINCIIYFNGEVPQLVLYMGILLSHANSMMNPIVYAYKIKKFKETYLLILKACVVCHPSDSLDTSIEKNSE
The assay can be described thus: Adenosine receptor TR-FRET binding assay (CA200645 displacement), A3.

Usually Ki stands for the dissociation constant of the complex between target and ligand, obtained from inhibition or displacement.

Where a name gives a salt, the structure may show the parent alone.

T1 sequence (P29274 whole entry): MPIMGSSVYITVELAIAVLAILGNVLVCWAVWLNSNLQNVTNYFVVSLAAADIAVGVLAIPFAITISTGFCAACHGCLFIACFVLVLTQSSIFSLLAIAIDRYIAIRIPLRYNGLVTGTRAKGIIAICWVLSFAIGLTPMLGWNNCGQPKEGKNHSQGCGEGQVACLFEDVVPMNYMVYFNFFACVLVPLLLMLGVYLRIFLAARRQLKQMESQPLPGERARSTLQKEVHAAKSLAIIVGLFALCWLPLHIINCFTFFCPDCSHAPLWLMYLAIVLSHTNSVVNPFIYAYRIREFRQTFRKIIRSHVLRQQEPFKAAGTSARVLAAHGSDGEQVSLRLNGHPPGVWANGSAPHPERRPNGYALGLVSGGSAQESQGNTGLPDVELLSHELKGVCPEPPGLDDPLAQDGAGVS

Turning to `Cc1cc(-c2c(-c3cccc(C#N)c3)nn3ccc(C(=O)NC4CN(C)C4)nc23)cc(Cl)n1` [Example 6.16, 3-(2-Chloro-6-methyl-4-pyridyl)-2-(3-cyanophenyl)-N-(1-methylazetidin-3-yl)pyrazolo[1,5-a]pyrimidine-5-carboxamide], the Ki was 5.9 nM in assay [1], 54 nM in assay [2], 346 nM in assay [3] and > 1000 nM in assay [4].
For the compound `Cc1cc(-c2c(-c3cccc(C#N)c3)nn3ccc(C(=O)N[C@H]4COC[C@H]4O)nc23)cc(Cl)n1` [Example 6.17, 3-(2-Chloro-6-methyl-4-pyridyl)-2-(3-cyanophenyl)-N-[(3S,4S)-4-hydroxytetrahydrofuran-3-yl]pyrazolo[1,5-a]pyrimidine-5-carboxamide], the Ki in assay [1] was 0.5 nM; in assay [2], 3 nM; in assay [3] it was 110 nM; in assay [4], > 1000 nM.
In the case of `Cc1cc(-c2c(-c3cccc(C#N)c3)nn3ccc(C(=O)NC45CC(N)(C4)C5)nc23)cc(Cl)n1` [Example 7.1, N-(3-Amino-1-bicyclo[1.1.1]pentanyl)-3-(2-chloro-6-methyl-4-pyridyl)-2-(3-cyanophenyl)pyrazolo[1,5-a]pyrimidine-5-carboxamide], the Ki is 2 nM in assay [1], 17 nM in assay [2], 245 nM in assay [3] and > 1000 nM in assay [4].
Take `Cc1cc(-c2c(-c3cccc(C#N)c3)nn3ccc(C(=O)N[C@H]4CNC[C@@H]4O)nc23)cc(Cl)n1` [Example 7.5, 3-(2-Chloro-6-methyl-4-pyridyl)-2-(3-cyanophenyl)-N-[trans-(3S,4S)-4-hydroxypyrrolidin-3-yl]pyrazolo[1,5-a]pyrimidine-5-carboxamide]: the inhibition constant Ki in assay [1] is 5.5 nM; in assay [2], 5 nM; in assay [3] it was 612 nM; in assay [4] it was > 1000 nM.
Turning to `Cc1cc(-c2c(-c3cccc(C#N)c3)nn3ccc(C(=O)NCC4(O)CCNC4)nc23)cc(Cl)n1` (stereo not drawn) [Example 7.6, 3-(2-Chloro-6-methyl-4-pyridyl)-2-(3-cyanophenyl)-N-[(3-hydroxypyrrolidin-3-yl)methyl]pyrazolo[1,5-a]pyrimidine-5-carboxamide], the Ki in assay [1] is 6.8 nM; in assay [2] it was 13 nM; in assay [3], 672 nM; in assay [4] it was > 1000 nM.
Turning to `Cc1cc(-c2c(-c3cccc(C#N)c3)nn3ccc(C(=O)NC4(C)CCNC4)nc23)cc(Cl)n1` (stereo not drawn) [Example 7.8, 3-(2-Chloro-6-methyl-4-pyridyl)-2-(3-cyanophenyl)-N-(3-methylpyrrolidin-3-yl)pyrazolo[1,5-a]pyrimidine-5-carboxamide], the inhibition constant (Ki) in assay [1] is 2.4 nM; in assay [2], 10 nM; in assay [3], 160 nM; in assay [4], > 1000 nM.
Regarding `Cc1cc(-c2c(-c3cccc(C#N)c3)nn3ccc(C(=O)NCC4(N)CC(F)(F)C4)nc23)cc(Cl)n1` [Example 7.10, N-[(1-Amino-3,3-difluoro-cyclobutyl)methyl]-3-(2-chloro-6-methyl-4-pyridyl)-2-(3-cyanophenyl)pyrazolo[1,5-a]pyrimidine-5-carboxamide], the Ki is 4.3 nM in assay [1], 19 nM in assay [2], 181 nM in assay [3] and > 1000 nM in assay [4].
For `Cc1cc(-c2c(-c3cccc(C#N)c3)nn3ccc(C(=O)NCC4CNCCO4)nc23)cc(Cl)n1` (stereo not drawn) [Example 7.11, 3-(2-Chloro-6-methyl-4-pyridyl)-2-(3-cyanophenyl)-N-(morpholin-2-ylmethyl)pyrazolo[1,5-a]pyrimidine-5-carboxamide], the inhibition constant Ki in assay [1] was 4.9 nM; in assay [2], 3 nM; in assay [3], 137 nM; in assay [4], > 1000 nM.
The corresponding values for `Cc1cc(-c2c(-c3cccc(C#N)c3)nn3ccc(C(=O)N4CCNCC4)nc23)cc(Cl)n1` [Example 7.12, 3-[3-(2-Chloro-6-methyl-4-pyridyl)-5-(piperazine-1-carbonyl)pyrazolo[1,5-a]pyrimidin-2-yl]benzonitrile hydrochloride] are 44.3 nM, 20 nM, 459 nM and > 1000 nM.
